Experimental data: PMC9721424, “Novel N-methylsulfonyl-indole derivatives: biological activity and COX-2/5-LOX inhibitory effect with improved gastro protective profile and reduced cardio vascular risks” (Journal of Enzyme Inhibition and Medicinal Chemistry, 2022)
Where “and” joins values, the source holds several entries; their conditions need not be identical. Equal entries are not always repeated.

Tested on: not listed separately
Assay: DPPH free radical assay
Format: biochemical
Settings: 540 nm, 30 min, relative to Trolox
Description: Preparation of samples was occurred at the following concentrations: Samples 3a, 4a, 5b, 5d and 5e at final concentrations of 0.5 mg/ml in methanol: DMSO 9:1 v/v. Samples 4b and 4d at final concentrations 0.025 mg/ml in methanol: DMSO 9:1 v/v, sample 5a at final concentrations 0.25 mg/ml in methanol: DMSO 9:1 v/v, Sample 4c, 5c and 4e at final concentrations 0.05 mg/ml in methanol: DMSO 9:1 v/v, sample 3b at final concentration 0.75 mg/ml methanol: DMSO 9:1 v/v. A stock solution of 100 µM concentration of Trolox, a standard used in this experiment, was prepared in methanol from which seven concentrations were prepared, including 50, 40, 30, 20, 15, 10 and 5 µM.
The DPPH (2,2-diphenyl-1-picryl-hydrazyl-hydrate) free radical assay was carried out according to the method of Boly et al. 2016[39]. Briefly, freshly prepared DPPH reagent (100 µl, 0.1% in methanol) was added to 100 µl of the sample on 96 well plates (n = 6). The reaction was incubated at room temp for 30 min in the dark. After completion of the incubation time, the reduction in DPPH colour intensity was measured at 540 nm. Data obtained was represented as means ± SD, according to the following equation, percentage inhibition = [(Average absorbance of blank – average absorbance of the test)/(Average absorbance of blank)] *100. The results were recorded using a microplate reader, FluoStar Omega.
Microsoft Excel® was used to analyse the obtained results. The IC50 values were calculated using Graph pad Prism 6® by converting the concentrations to their logarithmic value and selecting the non-linear inhibitor regression equation (log (inhibitor) vs. normalised response – variable slope equation). The methods used and the final test report (R-SO7320) were obtained from Nawah Scientific.

Compound	DPPH test results (µM trolox equivalent/ 1mg sample ± SD)
CS(=O)(=O)n1cc(/C=N/N=C2/NCC(=O)S2)c2ccccc21 [Compound 5a]	12.71 ± 1.16 µM trolox equivalent/ 1mg sample
CS(=O)(=O)n1cc(/C=N/N=C2\SC(=O)CN2c2ccccc2)c2ccccc21 [Compound 5c]	707.52 ± 49.91 µM trolox equivalent/ 1mg sample

Same assay, conditions: 540 nm, relative to Trolox; values in text

Compound	DPPH anti-oxidant activity
CS(=O)(=O)n1cc(/C=N/N=C2\SC(=O)CN2c2ccccc2)c2ccccc21 [Compound 5c]	707.52 µM Trolox equivalent/mg and 707.5 µM Trolox equivalent/mg

Tested on: TNF-α in RAW264.7 macrophage cells
Assay: In vitro measurement of TNF-α in RAW264.7 macrophage cells (RT-qPCR)
Format: cell-based
Settings: not given
Source text: Both Lipopolysaccharides (LPS) and hispidin were purchased from Sigma (Sigma-Aldrich, St. Louis, MO, USA)[40]. The foetal bovine serum (FBS) and Dulbecco’s modified Eagle’s medium (DMEM) were purchased from Hyclone (General Electric Healthcare Life Sciences, Mississauga, Canada), penicillin streptomycin (P/S) was purchased from Solarbio (Solarbio life sciences, Beijing, P. R. China). Results of all in vitro anti-inflammatory screening were obtained from the confirmatory diagnostic unit, VACSERA, Egypt.
DMEM was used to cultivate the macrophage cells RAW264.7 (Shanghai BOGO Industrial Co., Ltd., Shanghai, China), and supplemented with 10% FBS and 1% P/S (100 U/ml and […], respectively). […] They were treated with various concentrations of hispidin, then with 1 μg/ml LPS for the indicated time.
PBS (1 ml/well) was used to wash the cells in 24-well plates. […] For the experiments, CL Buffer included MgCl2 (M1028; Sigma) or RNasin Plus RNase Inhibitor (N2615; Promega). Before use, both Bio-Rad SPR and CL buffer were equilibrated to room temperature. […] Carefully, the resulting lysates were collected and either analysed immediately or stored frozen ([…]).
RT-qPCR analysis was performed in one-step SYBR Green RT-qPCR. […] A CFX96 real-time PCR instrument (Bio-Rad) was used under the following protocol: 50uC for 10 min, 95uC for 5 min, 95uC for 10 s/61uC for 15 s/72uC for 30 s.
Total RNA purified from cells was used as an RT-qPCR quantification standard.

Compound	TNF-α fold change
CS(=O)(=O)n1cc(/C=N/N=C2/NCC(=O)S2)c2ccccc21 [Compound 5a]	0.66

Target: T1, COX-2 (Ovis aries, UniProt P79208)
T1 sequence (P79208 17-603): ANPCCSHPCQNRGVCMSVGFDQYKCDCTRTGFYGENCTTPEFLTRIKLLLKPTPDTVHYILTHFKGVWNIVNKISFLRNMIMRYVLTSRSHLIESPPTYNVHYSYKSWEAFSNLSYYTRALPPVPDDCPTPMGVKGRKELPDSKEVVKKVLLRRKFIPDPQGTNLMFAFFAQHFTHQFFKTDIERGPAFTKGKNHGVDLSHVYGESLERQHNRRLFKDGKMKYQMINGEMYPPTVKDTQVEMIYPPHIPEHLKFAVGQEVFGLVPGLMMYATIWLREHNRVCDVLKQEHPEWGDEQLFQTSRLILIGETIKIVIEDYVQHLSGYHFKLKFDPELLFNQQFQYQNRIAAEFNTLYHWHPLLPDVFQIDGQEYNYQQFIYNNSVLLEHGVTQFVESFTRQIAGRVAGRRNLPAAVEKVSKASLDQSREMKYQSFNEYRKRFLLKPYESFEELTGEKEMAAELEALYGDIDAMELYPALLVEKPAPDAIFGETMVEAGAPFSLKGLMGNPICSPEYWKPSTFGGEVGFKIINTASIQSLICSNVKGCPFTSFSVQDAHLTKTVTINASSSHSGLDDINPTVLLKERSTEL
Assay: COX-2 inhibition, enzyme immune assay (EIA) kit
Format: biochemical, ovine
Settings: COX-2 selectivity index

Compound	S.I (IC50 COX-1/IC50 COX-2)
CS(=O)(=O)n1cc(/C=N/N=C2/NCC(=O)S2)c2ccccc21 [Compound 5a]	0.59
CS(=O)(=O)n1cc(/C=N/N=C2\SC(=O)CN2c2ccccc2)c2ccccc21 [Compound 5c]	3.63

Same assay, conditions: lab report, COX1/COX2

Compound	SI
CS(=O)(=O)n1cc(/C=N/N=C2/NCC(=O)S2)c2ccccc21 [Compound 5a]	0.592
CS(=O)(=O)n1cc(/C=N/N=C2\SC(=O)CN2c2ccccc2)c2ccccc21 [Compound 5c]	3.628

Target: T2, 5-LOX enzyme (Homo sapiens, UniProt P09917)
T2 construct: purchased Cayman Chemical K980-100
T2 sequence (P09917 1-674): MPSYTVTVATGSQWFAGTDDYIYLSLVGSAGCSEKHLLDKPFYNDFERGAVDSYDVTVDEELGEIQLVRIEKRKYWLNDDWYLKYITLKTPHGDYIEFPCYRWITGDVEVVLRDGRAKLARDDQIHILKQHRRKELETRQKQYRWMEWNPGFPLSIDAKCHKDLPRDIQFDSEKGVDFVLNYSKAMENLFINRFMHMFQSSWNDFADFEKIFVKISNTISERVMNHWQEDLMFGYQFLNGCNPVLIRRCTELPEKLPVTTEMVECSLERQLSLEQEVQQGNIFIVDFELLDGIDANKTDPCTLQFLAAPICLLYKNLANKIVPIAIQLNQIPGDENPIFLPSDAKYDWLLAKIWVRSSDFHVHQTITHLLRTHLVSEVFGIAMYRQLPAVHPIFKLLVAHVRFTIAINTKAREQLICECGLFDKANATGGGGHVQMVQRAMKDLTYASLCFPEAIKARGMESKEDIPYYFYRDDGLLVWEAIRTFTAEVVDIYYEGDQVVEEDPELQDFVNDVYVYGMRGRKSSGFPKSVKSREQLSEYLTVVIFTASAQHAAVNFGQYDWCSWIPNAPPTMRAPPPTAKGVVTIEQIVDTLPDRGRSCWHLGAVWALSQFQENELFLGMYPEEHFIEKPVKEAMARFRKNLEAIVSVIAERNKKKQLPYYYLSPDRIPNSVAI
Assay: 5-LOX inhibition, Human Lipoxygenase Inhibitor Screening Assay (EIA) kit
Format: biochemical
Settings: not given
Description: The ability of the test compounds to inhibit the 5-LOX enzyme (IC50 value, μM) was detected using the Cayman Human Lipoxygenase Inhibitor Screening Assay (EIA) kit (catalog no. K980-100, Cayman Chemical). The IC50 values of test compounds were measured in µM according to the manufacturer’s instructions and reported method.

Compound	IC50
CS(=O)(=O)n1cc(/C=N/N=C2/NCC(=O)S2)c2ccccc21 [Compound 5a]	9.23 ± 0.49 µM
CS(=O)(=O)n1cc(/C=N/N=C2\SC(=O)CN2c2ccccc2)c2ccccc21 [Compound 5c]	79.4 ± 4.2 µM

Same assay, conditions: conc 0.1 (μM)

Compound	5-LOX %inh
CS(=O)(=O)n1cc(/C=N/N=C2/NCC(=O)S2)c2ccccc21 [Compound 5a]	7.21%
CS(=O)(=O)n1cc(/C=N/N=C2\SC(=O)CN2c2ccccc2)c2ccccc21 [Compound 5c]	2.32%

Same assay, conditions: conc 1 (μM)

Compound	5-LOX %inh
CS(=O)(=O)n1cc(/C=N/N=C2/NCC(=O)S2)c2ccccc21 [Compound 5a]	17.4%
CS(=O)(=O)n1cc(/C=N/N=C2\SC(=O)CN2c2ccccc2)c2ccccc21 [Compound 5c]	5.84%

Same assay, conditions: conc 10 (μM)

Compound	5-LOX %inh
CS(=O)(=O)n1cc(/C=N/N=C2/NCC(=O)S2)c2ccccc21 [Compound 5a]	50.3%
CS(=O)(=O)n1cc(/C=N/N=C2\SC(=O)CN2c2ccccc2)c2ccccc21 [Compound 5c]	13%

Same assay, conditions: conc 100 (μM)

Compound	5-LOX %inh
CS(=O)(=O)n1cc(/C=N/N=C2/NCC(=O)S2)c2ccccc21 [Compound 5a]	79%
CS(=O)(=O)n1cc(/C=N/N=C2\SC(=O)CN2c2ccccc2)c2ccccc21 [Compound 5c]	66.7%

Tested on: not given
Assay: not given
Settings: not given

Compound	melting point
CS(=O)(=O)n1cc(/C=N/N=C2\SC(=O)CN2c2ccccc2)c2ccccc21 [Compound 5c]	260 to 262 °C

Target: T3, ovine COX-1 (Ovis aries, UniProt P05979)
T3 sequence (P05979 25-600): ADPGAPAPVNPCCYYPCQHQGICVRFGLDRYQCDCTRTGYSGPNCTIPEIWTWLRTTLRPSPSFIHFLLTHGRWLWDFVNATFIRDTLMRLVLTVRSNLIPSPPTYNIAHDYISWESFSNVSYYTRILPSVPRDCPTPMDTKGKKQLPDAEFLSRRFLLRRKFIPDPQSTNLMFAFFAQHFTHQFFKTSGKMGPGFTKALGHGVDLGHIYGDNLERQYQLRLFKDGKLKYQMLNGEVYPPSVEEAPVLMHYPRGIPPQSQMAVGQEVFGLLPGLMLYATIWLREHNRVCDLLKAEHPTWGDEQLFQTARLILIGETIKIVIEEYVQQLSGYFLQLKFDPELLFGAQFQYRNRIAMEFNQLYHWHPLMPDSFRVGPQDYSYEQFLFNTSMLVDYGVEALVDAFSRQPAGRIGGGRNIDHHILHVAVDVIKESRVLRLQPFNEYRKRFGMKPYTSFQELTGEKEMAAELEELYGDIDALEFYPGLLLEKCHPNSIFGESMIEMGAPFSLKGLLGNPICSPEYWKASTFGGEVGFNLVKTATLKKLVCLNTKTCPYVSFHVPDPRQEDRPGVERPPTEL
Assay: COX-1 inhibition, enzyme immune assay (EIA) kit
Settings: conc 0.1 (μM)
Source text: Colorimetric enzyme immunoassay (EIA) kits were done to screen for the isozyme-specific inhibition.

Compound	COX1 %inh
CS(=O)(=O)n1cc(/C=N/N=C2/NCC(=O)S2)c2ccccc21 [Compound 5a]	13.6%
CS(=O)(=O)n1cc(/C=N/N=C2\SC(=O)CN2c2ccccc2)c2ccccc21 [Compound 5c]	4.55%

Same assay, conditions: conc 1 (μM)

Compound	COX1 %inh
CS(=O)(=O)n1cc(/C=N/N=C2/NCC(=O)S2)c2ccccc21 [Compound 5a]	32.4%
CS(=O)(=O)n1cc(/C=N/N=C2\SC(=O)CN2c2ccccc2)c2ccccc21 [Compound 5c]	10.5%

Same assay, conditions: conc 10 (μM)

Compound	COX1 %inh
CS(=O)(=O)n1cc(/C=N/N=C2/NCC(=O)S2)c2ccccc21 [Compound 5a]	59%
CS(=O)(=O)n1cc(/C=N/N=C2\SC(=O)CN2c2ccccc2)c2ccccc21 [Compound 5c]	27.9%

Same assay, conditions: conc 100 (μM)

Compound	COX1 %inh
CS(=O)(=O)n1cc(/C=N/N=C2/NCC(=O)S2)c2ccccc21 [Compound 5a]	85.6%
CS(=O)(=O)n1cc(/C=N/N=C2\SC(=O)CN2c2ccccc2)c2ccccc21 [Compound 5c]	72.1%

Same assay, conditions: read-out: IC50 COX-1

Compound	IC50
CS(=O)(=O)n1cc(/C=N/N=C2/NCC(=O)S2)c2ccccc21 [Compound 5a]	3.95 ± 0.11 µM
CS(=O)(=O)n1cc(/C=N/N=C2\SC(=O)CN2c2ccccc2)c2ccccc21 [Compound 5c]	29.2 ± 0.83 µM
